The values below come from patent publication US11857601B2, “Pharmaceutical composition for cancer treatment comprising fusion protein including IL-2 protein and CD80 protein and anticancer drug” (GI INNOVATION, INC., priority 2020, dated 2024).

For assay [1], the target named is T1, IL-2Rβ (Homo sapiens, UniProt P14784).
T1 construct: purchased Acro CD2-H5221
T1 sequence (P14784 27-551): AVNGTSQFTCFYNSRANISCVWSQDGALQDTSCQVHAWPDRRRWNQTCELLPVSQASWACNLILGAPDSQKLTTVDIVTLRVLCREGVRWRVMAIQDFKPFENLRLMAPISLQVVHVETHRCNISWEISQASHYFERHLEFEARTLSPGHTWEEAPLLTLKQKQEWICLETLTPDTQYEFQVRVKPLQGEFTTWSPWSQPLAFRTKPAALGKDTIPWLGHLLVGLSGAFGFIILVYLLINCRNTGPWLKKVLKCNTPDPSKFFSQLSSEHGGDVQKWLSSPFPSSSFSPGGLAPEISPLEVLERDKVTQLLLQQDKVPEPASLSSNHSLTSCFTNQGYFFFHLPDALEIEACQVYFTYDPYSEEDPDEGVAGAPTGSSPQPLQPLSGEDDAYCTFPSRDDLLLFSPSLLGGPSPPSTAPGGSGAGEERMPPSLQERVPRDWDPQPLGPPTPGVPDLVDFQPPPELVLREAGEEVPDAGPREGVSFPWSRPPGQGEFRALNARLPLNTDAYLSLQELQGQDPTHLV
Description: Binding to IL-2Rβ (Octet, Ni-NTA biosensor). The following applies: as compared with GI101w and Proleukin. The method, then:
The binding ability for IL-2Rα was measured using the AR2G biosensor, and the binding ability for IL-2Rβ was measured using the Ni-NTA biosensors (Nickel charged Tris-NTA, Ni-NTA Biosensors, ForteBio, 18-5101).
Meanwhile, a ligand (IL-2Rβ-His Tag, Acro, Cat: CD2-H5221) to be attached to the Ni-NTA biosensor was diluted with 1×Ni-NTA kinetic buffer to a concentration of 5 μg/ml. The diluted ligand was loaded on the Ni-NTA biosensor for 600 seconds and fixed.
Thereafter, GI101, GI101w, or Proleukin (Novartis, hIL-2), at various concentrations, to be attached to the ligand was loaded thereon for 300 seconds. Then, binding thereof was measured and dissociation thereof was also measured for 300 seconds. Binding kinetics analysis was performed using Octet Data Analysis HT software ver. 10 provided by Pall Corporation. The results are illustrated in FIGS. 22 to 24.
On the technique in general: Biolayer interferometry detects binding as a change in optical thickness at a sensor tip.

Assay [2] deals with Renca cells. In words: mGI-101 and Lenvatinib in Renca allotransplanted tumor model. The class given is in vivo, BALB/c mice. How it is done:
Renca cells were purchased from ATCC (USA) and cultured in RPMI1640 medium (Gibco) containing 10% FBS (Gibco) and 1% antibiotic/antifungal agent (Gibco). The cultured cells were harvested using trypsin (Gibco) and then suspended in PBS. In order to establish an allotransplanted tumor model, 5×10^6 Renca cells were subcutaneously injected into the back of BALB/c female mice (8-week-old).
A certain period of time after cell inoculation of the tumor grafts of the mice, the tumor volume was measured for animals with no abnormalities in the health condition of the animals, and the mice were randomly selected and assigned, each group including 10 mice.
The death of the mouse, the type of general symptoms, the date of onset, and the severity of symptoms were observed once a day during the test period, and recorded for each subject.
The tumor volume before administration of each subject was set as the value measured at the time of grouping, and the anti-tumor efficacy was evaluated as compared with the vehicle control.
(§1) All statistical calculations were performed using Prism 8.0 (Graph Pad Software Inc, USA). The comparison of tumor volume measurements was made through two-way analysis of variance followed by Tukey's multiple comparison test. A p value of less than 0.05 was considered significant.

The test system of assay [3] is BT-474 cells. Description: mGI-101 and Herceptin in BT-474 xenotransplanted tumor model. The class given is in vivo, human.
Text: BT-474 cells were purchased from ATCC (USA) and cultured in RPMI1640 medium (Welgene) containing 10% FBS (Gibco) and 1% antibiotic/antifungal agent (Gibco).
In order to establish a xenotransplanted tumor model for BT-474 cells, it was subcutaneously injected into the left flank of BALB/c nu/nu female mice (7-week-old) by pulling the leather skin of the mice to make a space using a pellet transplant trochar (MP-182, Innovative Research of America, USA) so that it was located under the skin of the left flank.
A certain period of time after cell inoculation of the tumor grafts of the mice, the tumor volume was measured for animals with no abnormalities in the health condition of the animals, and the subjects were selected so that the average of each group reached less than 60-120 mm^3, and the selected animals were assigned as evenly as possible based on tumor volume and body weight, each group including 10 animals.
Clinical symptoms such as a disease and a behavioral change were observed once a day during the test period, and deceased animals were identified, and the mice were sacrificed when the tumor size reached a size of 4,000 mm^3.
The tumor volume before administration of each subject was set as the value measured at the time of grouping.
as §1

In assay [4] the test system is effector CD8+ T cells, NK cells, Treg cells. In words: Effect on mouse immune cells in spleen. The class given is in vivo, C57BL/6 mice. The following applies: 3rd to 14th days after i.v. administration (3, 6 or 12 mg/kg), vs PBS. How it is done: On days 1, 3, 5, 7, and 14 after the injection, the spleen tissues were removed from the mice of each group. Thereafter, for the spleen tissue, the numbers of effector CD8+ T cells, NK cells, and Treg cells were calculated with FACS analysis using respective antibodies, and proportions of effector CD8+ T cells and NK cells with respect to Treg cells were respectively calculated. The information on the antibodies used in each cell analysis is as follows:
Effector CD8+ T cell: PB anti-mouse CD3ε antibody (Biolegend, #155612; KT3.1.1), FITC anti-mouse CD8α antibody (BD, #553031, 53-6.7), PE/Cy7 anti-mouse CD44 antibody (Biolegend, #103030; IM7), APC anti-mouse CD122 antibody (Biolegend, #123214; TM-β1)
NK cell: PB anti-mouse CD3ε antibody (Biolegend, #155612; KT3.1.1), PE anti-mouse NK-1.1 (Biolegend, #108708; PK136)
Treg cell: FITC anti-mouse CD3 antibody (Biolegend, #100204; 17A2), PB anti-mouse CD4 antibody (Biolegend, #100531; RM4-5), PE anti-mouse CD25 antibody (Biolegend, #102008; PC61), APC anti-mouse Foxp3 antibody (Invitrogen, #FJK-16s, 17-5773-82).

The mark [5] stands for this setting: mGI-101 twice a week (BIW), Lenvatinib daily, 10 mice per group.
[6] abbreviates: BT-474, end of the test, 10 animals per group.

In the case of “GI101: fusion protein: human CD80 fragment, Ig hinge, Fc domain, linker, IL-2 variant (2M) (R38A, F42A); SEQ ID NO: 9”, the “binding ability for IL-2Rβ” value in assay [1] was “high binding ability”.

For the substance “mGI101: fusion protein: mouse CD80, Ig hinge, Fc domain, linker, IL-2 variant (2M) (R38A, F42A); SEQ ID NO: 15”, in assay [2] (mGI-101 alone once a week), the “number of mice with tumor growth inhibition rate of 30% or more” value came out at 5 mice, the “number of mice with tumor growth inhibition rate of 50% or more” value came to 2 mice and the “number of mice with tumor growth inhibition rate of 80% or more” value was 1 mice. For the same substance, in assay [2] (setting [5]), the “number of mice with tumor growth inhibition rate of 30% or more” value came to 3 mice, the “number of mice with tumor growth inhibition rate of 50% or more” value amounted to 1 mice and the “number of mice with tumor growth inhibition rate of 80% or more” value was “no mouse”. For the same substance, in assay [3] (setting [6]), the “number of mice with tumor growth inhibition rate of 30% or more” value was determined as 5 mice, the “number of mice with tumor growth inhibition rate of 50% or more” value stood at 1 mice and the “number of mice with tumor growth inhibition rate of 80% or more” value is “no mouse”. The “tumor size compared with the vehicle control” value in assay [3] (mGI-101 3 mg/kg i.v. QW: day 28, Herceptin 1 mg/kg i.p. QW: day 14, 18, 21, combination: day 14 to day 28) is recorded as “statistically significant reduction in tumor size”. In assay [4], the “numbers of CD8+ T cells and NK cells” value is given as “significant increase”.
